Series [1] has as its target T1, VIM-2 (Pseudomonas aeruginosa, UniProt Q9K2N0).
T1 construct: The activity of purified VIM-2 was measured spectrophotometrically; made in house
As to the kind of experiment: VIM-2 enzyme kinetics with nitrocefin, competitive inhibition model. Type of series: biochemical. As to the method:
Nitrocefin was used as the substrate, as it is a chromogenic cephalosporin. The activity of purified VIM-2 was measured spectrophotometrically (Cytation 3, BioTek, Winooski, VT, USA) in a potassium phosphate buffer (PBS, pH = 7.4, prepared according to a published recipe).

Details of series [2]: method as in PMID 27864057. Conditions: read-out: Kd (Zn binding); cited from earlier work.
Series [3] has as its system PAX5VIM-2 (VIM-2 expressing bioluminescent PA). The experiment in a line: MIC assay against PAX5VIM-2 (CLSI, MHB-2). It is filed as cell-based, Pseudomonas aeruginosa. How it is done: MIC assays were carried out following the Clinical and Laboratory Standards Institute (CLSI) established guidelines using MHB-2 and bacterial concentrations of 5 × 10^5 CFU/mL [57, 58]. A varying concentration of quercetin derivatives or conventional antibiotics was dissolved in the media with bacteria cells. The resulting suspensions were transferred to a 96-well microliter plate at 200 μL/well (triplicate for each compound). The plate was then incubated overnight at 37 °C. The MIC was determined as the concentration at which no growth was observed.

Series [4] can be described thus: Toxicity against wild type human HEK 293T cells. It is filed as cell-based. Conditions: HEK293T cells (wild type); quercetin analogs alone; human kidney cell line HEK293T.
Series [5] deals with PAX5-WT. The experiment in a line: Single dose inhibition against SBL-producing PAX5-WT. Type of series: cell-based, Pseudomonas aeruginosa. The following applies: amoxicillin 25 μM; amoxicillin:taxifolin 1:1; QATC 2:1:2. As to the method: Bacteria were diluted to 5 × 10^5 CFU/mL in MH broth (MHB). A growth control containing only bacteria and a negative control containing only MHB were added. Test wells were treated with either 25 µM meropenem, ceftazidime, amoxicillin, or doripenem, as well as 1:1 combinations of the previous antibiotics with vaborbactam. Each set was repeated in triplicate, and the final viability was determined in reference to the growth control.
Supplementary Figure S9. Single dose inhibition of taxifolin against SBL-producing PAX5-WT. Concentration of amoxicillin was 25 μM for all samples. The molar ratio of the augmentin was 2:1 (amoxicillin:clavulanate); the molar ratio of the amoxicillin:taxifolin was 1:1; the molar ratio of the QATC was 2:1:2 (amoxicillin:clavulanate:taxifolin).
Supplementary Figure S10. […]

The subject of series [6] is HEK 293T cells. As to the kind of experiment: Toxicity against wild type human HEK 293T cells. Conditions: quercetin analogs alone; human kidney cell line HEK293T. Type of series: cell-based.
Where [7] appears, read: inhibitor fixed at 500 μM, nitrocefin 5 to 100 μM, PBS pH 7.4, 10 min pre-incubation, read-out: VIM-2, Ki.
The mark [8] stands for this setting: quercetin analogs in combination with augmentin (2:1 molar amoxicillin:clavulanate), PAX5VIM-2.

Data on eleven compounds can be found in PMC10673258, “Taxifolin as a Metallo-β-Lactamase Inhibitor in Combination with Augmentin against Verona Imipenemase 2 Expressing Pseudomonas aeruginosa” (Microorganisms, 2023).

Broadly, the Ki is a measure of affinity in units of concentration, obtained from inhibition or displacement. In general, Kd refers to a measure of binding affinity in units of concentration. As a reminder, the MIC is the least concentration at which growth counts as inhibited. As usually defined, the CC50 is the concentration at which the toxic effect on the cells reaches its halfway point. Lower therefore signals greater toxicity to the cells.

Values joined by “and” are separate entries in the source; they are usually repeats but may differ in a detail not shown here. Equal values may be shown once. Read-outs that look alike come from different tables or passages of the source.

For the compound `O=c1c(O)c(-c2ccc(O)c(O)c2)oc2cc(O)cc(O)c12` [1a, quercetin], the Ki in series [1] (setting [7]) is 41 ± 4 µM. Also, the Kd in series [2] is approximately 100 µM.
For `O=c1cc(-c2ccc(O)c(O)c2)oc2c(C3OC(CO)C(O)C(O)C3O)c(O)cc(O)c12` (stereo not drawn) [1d], in series [1] (setting [7]), the Ki is 34 ± 4 µM.
Take `O=c1cc(-c2ccc(O)c(O)c2)oc2cc(O)cc(O)c12` [11a]: the MIC in series [3] (setting [8]) turned out to be 7.2 µg/mL. Also, the CC50 in series [4] worked out at 175 µM. Further, the Ki in series [1] (setting [7]) was 36 ± 2 µM.
For `O=C(O)[C@H]1O[C@@H](Oc2cc(O)c3c(=O)cc(-c4ccc(O)c(O)c4)oc3c2)[C@H](O)[C@@H](O)[C@@H]1O` [11b] the same measures were 11.6 µg/mL, 182 µM and 52 ± 9 µM.
With `CC1(C)S[C@@H]2[C@H](NC(=O)[C@H](N)c3ccc(O)cc3)C(=O)N2[C@H]1C(=O)O` [amoxicillin, reference compound], in series [3] (Pseudomonas aeruginosa, read-out: MIC of amoxicillin), the MIC was 100 µM and 36 µg/mL.
With `O=c1c(O)c(-c2cc(O)c(O)c(O)c2)oc2cc(O)cc(O)c12` [compound 3], in series [3] (setting [8]), the MIC turned out to be 9.4 µg/mL. Moreover, the Ki in series [1] (setting [7]) worked out at 42 ± 1 µM.
As for `O=c1c(O)c(-c2ccc(O)c(O)c2)oc2cc(O)c(O)c(O)c12` [compound 4, quercetagetin], the minimum inhibitory concentration (MIC) in series [3] (setting [8]) was 3.9 µg/mL. For the same compound, affinity in series [1] was put at a Ki of 13 ± 2 µM.
As for `O=C1c2c(O)cc(O)cc2OC(c2ccc(O)c(O)c2)C1O` (stereo not drawn) [compound 5, taxifolin], the “concentration inhibiting VIM-2 expressing P. aeruginosa cell proliferation” value in series [3] (as part of a triple combination with amoxicillin and clavulanate) is less than 4 µg/mL. Also, the MIC in series [3] (setting [8]) worked out at 3.1 µg/mL. For the same compound, the “benefit in the killing of SBL-only PAX5-WT” value in series [5] is recorded as “unable to provide any significant benefit in the killing”. The CC50 in series [4] is more than 200 µM. For the same compound, in series [1] (setting [7]), the Ki came out at 8 ± 1 µM.
Turning to `COc1ccc(-c2cc(=O)c3c(O)cc(O)cc3o2)cc1O` [compound 12], the minimal inhibitory concentration (MIC) in series [3] (setting [8]) amounted to 7.5 µg/mL.
Take `COc1ccc(-c2oc3cc(OC)c(OC)c(O)c3c(=O)c2OC)cc1O` [compound 13]: in series [3] (setting [8]), the MIC came to 9.4 µg/mL. The same compound returned a CC50 in series [4] of more than 200 µM.
Take chrysoeriol [compound 14]: the MIC in series [3] (setting [8]) came out at 7.6 µg/mL. For the same compound, in series [6], the CC50 is more than 200 µM.
